We go through ten compounds from patent US6765014B1, “1-Acyl-7-nitroindoline derivatives, their preparation and their use as photocleavable precursors” (Medical Research Council, priority 1999, dated 2004).

The nature of data set [1]: Hydrolytic stability of 1-acyl-7-nitroindolines (reverse-phase HPLC). Format: physicochemical. Particulars: 62.5 mM Na phosphate, pH 12.01, 30° C. How it is done:
The extent of hydrolysis was determined by reverse-phase HPLC analysis (mobile phase 25 mM Na phosphate, pH 6.0+10% MeOH, 1.5 ml/min). […] Quantification was based on peak heights compared to those of unhydrolysed controls (to). First-order rate constants for hydrolysis were obtained from single exponential fits to the data.
In addition to the release rate of the bioeffector species following flash irradiation, important properties of any caged compound include stability in aqueous solution and its extent of photolysis upon a single flash irradiation.
In this context, hydrolytic stability refers to the amide bond. […] The use of the free acids avoided analytical complications from the much faster cleavage of the ester group.

Data set [2] can be described thus: Quantum yield estimation by laser flash irradiation (347 nm). The format is physicochemical. As to the method: Quantum yield estimation for 10. A solution of 1-(2-nitrophenylethyl) phosphate and 10 (each 0.50 mM) together with dithiothreitol (5 mM) was prepared in 25 mM ammonium phosphate, pH 7.0. Aliquots of the solution ([…]) in a 1-mm path length cell were each subjected to one 50-ns flash from a frequency-doubled ruby laser, that delivered 347 nm light with an average energy of 90 mJ (range 83-104 mJ). The combined irradiated solutions were analyzed by reverse-phase HPLC (mobile phase 25 mM Na phosphate, pH 6.0+40% MeOH, 1.5 ml/min). Retention times were 4.2 and 7.2 min for 10 and 1-(2-nitrophenylethyl) phosphate respectively. Quantification was based on peak heights compared to those of the unphotolyzed control. Extinction coefficients at 347 nm used to calculate the relative quantum yields were 2720 and 510 M^−1cm^−1 for 10 and 1-(2-nitrophenylethyl) phosphate respectively. Photolysis and product analysis for compounds 10 and 18.
The product quantum yield (Qp) for photolysis of the glutamate derivative 10 was determined by laser flash irradiation (347 nm) of a solution containing 10 and 1-(2-nitrophenyl)ethyl phosphate (16) (both 0.5 mM in pH 7 phosphate buffer). Conversions by a single flash (˜90 mJ) were 9.7 and 23% respectively (reverse-phase HPLC), leading to Qp=0.043 by comparison with the known value (16) (0.54) for the caged phosphate and after correction for the different extinction coefficients at the irradiation wavelength. Although the value of Qp is low, the relatively high extinction coefficient at ˜350 nm (˜2700 M^−1cm^−1) compared to that of “classical” 2-nitrobenzyl-type caged compounds (˜600 M^−1cm^−1) enables similar photolytic efficiency to be achieved.

For data set [3], the system named is glutamate ion channels. The experiment in a line: Whole-cell patch clamp of cultured rat cerebellar granule neurones, with and without flash photolysis. Format: cell-based. How it is done: The caged L-glutamate reagent 10 was tested in primary cultures of rat cerebellar granule neurones for its pharmacological actions and ability to effect photolytic activation of glutamate ion channels. All electrophysiological experiments were performed in Mg^2+-free mammalian Ringer's solution containing 100 μM glycine. Cells were voltage clamped at −65 mV with whole-cell patch clamp (17) and the glutamate sensitivity was established by responses to 20 ms pulses of L-glutamate, applied at a frequency of 0.25 Hz by iontophoresis from a 1-μm tipped glass pipette. […] The latter most likely arises from glutamate diffusion away from the photolyzed region. The time course of the initial decline may represent desensitization of non-NMDA glutamate channels.
During the slow decline there was a clear increase in the low frequency noise of the glutamate-activated current compared to baseline, consistent with gating of glutamate-activated ion channels.
(The patch-clamp technique gives a direct electrical read-out from membranes.)

Data set [4] in a line: Photolysis and product analysis (HPLC and quantitative amino acid analysis). Particulars: for Extent of photolysis (conversion): 0.5 mM, 25 mM ammonium phosphate pH 7.0, 3 min mercury arc lamp; for Measured concentration of glutamate as % of value calculated from extent of photolysis: 25 mM ammonium phosphate pH 7.0 ± 1 mM dithiothreitol; for Stoichiometry of effector release upon photolysis: quantitative amino acid analysis of part-photolyzed solutions. The format is physicochemical. How it is done: Separate solutions of 10 (each 0.50 mM) in 25 mM ammonium phosphate, pH 7.0±1 mM dithiothreitol were irradiated in a 1-mm path length cell for 3 min using light from a mercury arc lamp which passed through Hoya 340 and Schott WG 305 filters before illuminating the cell. The extent of photolysis was determined by reverse-phase HPLC (mobile phase 25 mM Na phosphate, pH 6.0+10% MeOH, 1.5 ml/min). Quantification was based on peak heights compared to those of unphotolyzed controls. Aliquots of the photolyzed solutions were also subjected to quantitative amino acid analysis (see General Procedures).
Photolysis and product analysis for compound 21. A solution (0.5 mM) of 21 in 25 mM ammonium phosphate, pH 7.0 was irradiated as described for compound 10 and the photolyzed solution was quantified by reverse-phase HPLC and amino acid analysis.

Data set [5] can be described thus: Relative photolysis efficiencies of 8 and 11 (xenon arc lamp, HPLC). The format is physicochemical. As to the method: Relative photolysis efficiencies of 8 and 11. A solution containing both 8 and 11 (each 0.5 mM) in 25 mM Na phosphate, pH 7.0 was irradiated in a 1-mm path length cell using light from a 100 W xenon arc lamp which passed through Hoya 340 and Schott WG 305 filters before. illuminating the cell. The extent of photolysis of each compound was determined by reverse-phase HPLC analysis (mobile phase 10 mM Na phosphate, pH 6.0+50% MeOH, 1.5 mL/min). Retention times for 8 and 11 were 3.8 and 7.8 min respectively. After 2 min irradiation, the extents of conversion for compounds 8 and 11 were 40 and 16% respectively.
Upon comparative photolysis of the 1-glutaryl derivatives 8 and 11 in aqueous solutions at pH 7 and without excluding atmospheric oxygen, the bromo compound 11 was indeed converted ˜2.5-fold less efficiently than 8. Photolysis of 8 proceeded cleanly, as shown by an isosbestic point at 365 nm in spectra of a solution photolyzed for increasing times to at least 65% conversion, but the photoproduct of the protecting group was not the 7-nitroindoline 12 (λmax 450 nm) expected from the previous report (6a). […] Further confirmation of the presence of a nitroso group was that treatment of 13, R=CH2CO2Me) with a thiol readily abolished the 412 nm chromophore, presumably by conversion to the corresponding hydroxylamine (11, 12). […] In control experiments, photolysis of the glutaryl compound 8 in CH2Cl2-dioxane-H2O (2:3:0.05) cleanly gave the expected (6a) nitroindoline 12.

A short description of data set [6]: Comparative photolysis in aqueous solution (Rayonet photochemical reactor, UV-VIS). The format is physicochemical. Particulars: for Time required for half-maximal photolysis: pH 7 (5:95), 16×350 nm lamps; for Photolysis upon irradiation: near-UV light, UV-visible spectrum of irradiated solution, conditions for 24 not given. How it is done:
Comparative photolysis of methyl 1-acetyl-7-nitroindoline-5-acetate 16 and 1-acetyl-4-methoxy-7-nitroindoline 25 in aqueous solution. Separate 1 ml samples of each compound [0.0896 mM in EtOH-25 mM Na phosphate, pH 7 (5:95)] in 1 cm path length optical cells were photolysed simultaneously for 0, 0.25, 0.5, 1, 2, 4, 6 and 8 min in a Rayonet photochemical reactor (16×350 nm lamps) and UV-VIS spectra were recorded after each irradiation period. FIGS. 4 and 5 show the time course of photolysis for 16 and 25 respectively.
Comparative photolysis of 1-acetyl-4-methoxy-7-nitroindoline 25 and 1-acetyl-4-methoxy-[…] 30 in aqueous solution. Separate 1 ml samples of each compound [0.0748 mM in EtOH-25 mM Na phosphate, pH 7 (5:95)] in 1 cm path length optical cells were photolysed simultaneously for 0, 0.25, 0.5, 1, 2, 4 and 6 min in a Rayonet photochemical reactor (16×350 nm lamps) and UV-VIS spectra were recorded after each irradiation period. FIGS. 6 and 7 show the time course of photolysis for 25 and 30 respectively.
With the relative merits of the substitution pattern on the aromatic ring established, the effect of the more powerfully electron-releasing 4-dimethylamino group was probed. The required indole 32 was prepared via the semicarbazone 31 from N,N-dimethyl-2-methyl-3-nitroaniline by a modified Leimgruber-Batcho procedure (30). […] Nitration as before with NaNO3-TFA gave a complex mixture, from which the 5-nitro compound 34 was separated by chromatography. To achieve isolation of the required 7-nitro isomer 36, the remaining material was hydrolysed and the products chromatographed. The 5,7-dinitroindoline 35 was obtained in pure form, together with fractions that contained the presumed 7-nitroindoline. Acetylation of these combined fractions provided the desired material 36 in poor overall yield. Its structure was confirmed by nOe enhancement of the 5-proton upon irradiation of the dimethylamino signal. In the related 5-nitro isomer 34, irradiation of the dimethylamino signal had no effect on the integrated intensity of either aromatic proton signal. […] The series of compounds described in this latter series of experiments could be coupled to effector moieties, e.g. as described for compounds 10 and 21. [drawing 8] [drawing 9] [drawing 10]

The mark [7] stands for this setting: 0.0896 mM in EtOH-25 mM Na phosphate.
The mark [8] stands for this setting: 0.0748 mM in EtOH-25 mM Na phosphate.

Turning to `COC(=O)Cc1cc2c(c([N+](=O)[O-])c1)N(C(=O)CC[C@H](N)C(=O)O)CC2` [Compound 10, Methyl 1-[S-(4-amino-4-carboxybutanoyl)]-7-nitroindoline-5-acetate], the “Half-times for hydrolysis (amide hydrolysis)” value in data set [1] is recorded as 6 h. In addition, the “Extinction coefficient at ~350 nm” value in data set [2] was approximately 2700 M⁻¹ cm⁻¹. Further, in data set [2] (347 nm laser flash, ~90 mJ, 0.5 mM, pH 7 phosphate buffer), the “Conversion by a single flash” value was 9.7%. The “Product quantum yield (Qp)” value in data set [2] (347 nm, by comparison with caged phosphate, corrected for extinction coefficients) is recorded as 0.043. Also, the “Extinction coefficient at 347 nm” value in data set [2] (used to calculate relative quantum yields) was 2720 M⁻¹ cm⁻¹. Further, the “Effect on peak response to iontophoretic pulses of L-glutamate” value in data set [3] (1 mM in bath, no photolysis) is reported as “did not diminish”. Further, in data set [3] (1 mM in bath, −65 mV, no photolysis), the “Activation of current in granule neurones by unphotolyzed caged compound” value is reported as “no activation of current”. The “Time scale of L-glutamate release by flash photolysis” value in data set [3] (1 ms light pulse) was “on the same time scale as the light pulse”. Besides, the “Rise of inward current after flash photolysis, exponential half-time (mean)” value in data set [3] (1 ms xenon arc flash, Schott UG11 filter, n=8) was 0.74 ms. In addition, in data set [3] (after 1 ms xenon arc flash), the “Fast decline of inward current, mean half-time” value came out at 2.9 ms. The “Activity at glutamate ion channels of NMDA- and non-NMDA-activated types” value in data set [3] (unphotolyzed compound) was “inactive”. Also, in data set [4], the “Extent of photolysis (conversion)” value was approximately 35%, the “Measured concentration of glutamate as % of value calculated from extent of photolysis” value is reported as 90-94% and the “Stoichiometry of effector release upon photolysis” value is reported as 1:1 stoichiometry. Also, in data set [4] (separate experiments), the “Efficiency of glutamate release upon photolysis, 10 vs the salt of its free acid” value was “equal efficiency”.

`O=C(O)CCCC(=O)N1CCc2cc(Br)cc([N+](=O)[O-])c21` [Compound 11, 5-Bromo-1-glutaryl-7-nitroindoline]: the “Extent of conversion (photolysis)” value in data set [5] (after 2 min irradiation, 0.5 mM each, 25 mM Na phosphate pH 7.0, 100 W xenon arc lamp) stood at 16%. The “Fold less efficient photolytic conversion than 8” value in data set [5] (aqueous solution pH 7, atmospheric oxygen not excluded) is approximately 2.5 fold.

`COC(=O)Cc1cc(N=O)c2[nH]ccc2c1` [Compound 13, Methyl 7-nitrosoindole-5-acetate]: the “Effect of photolysis by-product on glutamate receptors or resting membrane properties” value in data set [3] (control experiments during and after photolysis) is on record as “no adverse effect”.

With `COC(=O)Cc1cc2c(c([N+](=O)[O-])c1)N(C(C)=O)CC2` [Compound 16, Methyl 1-acetyl-7-nitroindoline-5-acetate], the “Time required for half-maximal photolysis” value (“Time required” for short) in data set [6] (setting [7]) was approximately 1.2 min.

Turning to `N[C@@H](CCC(=O)N1CCc2cc(CC(=O)O)cc([N+](=O)[O-])c21)C(=O)O` [Compound 18, 1-[S-(4-amino-4-carboxybutanoyl)]-7-nitroindoline-5-acetic acid], in data set [4], the “Extent of photolysis (conversion)” value is listed as approximately 51% and the “Measured concentration of glutamate as % of value calculated from extent of photolysis” value is given as 97-108%.

With `COC(=O)Cc1cc2c(c([N+](=O)[O-])c1)N(C(=O)CCCN)CC2` [Compound 21, Methyl 1-(4-aminobutanoyl)-7-nitroindoline-5-acetate], in data set [4], the “Extent of photolysis (conversion)” value is 38% and the “Stoichiometry of effector release upon photolysis” value is listed as “stoichiometric release of GABA”.

Regarding `COC(=O)Cc1cc([N+](=O)[O-])c(OC)c2c1N(C(C)=O)CC2` [Compound 24, Methyl 1-acetyl-4-methoxy-5-nitroindoline-7-acetate], the “Photolysis upon irradiation” value in data set [6] is on record as “photostable”.

Take `COc1ccc([N+](=O)[O-])c2c1CCN2C(C)=O` [Compound 25, 1-Acetyl-4-methoxy-7-nitroindoline]: the “Time required” value in data set [6] (setting [8]) and in data set [6] (setting [7]) was approximately 0.4 min in each case. The “Fold more efficient photolysis than 30” value in data set [6] (aqueous solution) is approximately 2 fold. Besides, in data set [6] (aqueous solution, equal concentration), the “Fold more efficient photolysis than 16” value is reported as approximately 3 fold.

For the compound `COc1c(C)cc([N+](=O)[O-])c2c1CCN2C(C)=O` [Compound 30, 1-Acetyl-4-methoxy-5-methyl-7-nitroindoline], the “Time required” value in data set [6] (setting [8]) is approximately 0.9 min. Also, in data set [6] (aqueous solution), the “Fold less efficient photolysis than 25” value was approximately 2 fold.

With `CC(=O)N1CCc2c(N(C)C)ccc([N+](=O)[O-])c21` [Compound 36, 1-acetyl-4-N,N-dimethylamino-7-nitroindoline], the melting point was 177 to 178 °C. In addition, the “Photolysis upon irradiation” value in data set [6] was “no detectable photolysis”.

As usually defined, the melting point is the temperature of the solid-liquid transition.
